Assay results reported in patent US8557992B2, “Heterocyclic fused phenanthrolinone M1 receptor positive allosteric modulators” (Merck Sharp & Dohme Corp., priority 2010, dated 2013).

The molecules below were run against T1, acetylcholine muscarinic M1 receptor (hM1) (Homo sapiens, UniProt P11229) (assay: FLIPR intracellular calcium assay for M1 positive allosteric modulator activity in CHOnfat/hM1 cells). Details: 4 min preincubation, then acetylcholine EC20 (3 nM final), calculated from FLIPR values, read-out: IP Value (inflection point).
T1 construct: expressed in transfected cells; host or cells: CHOnfat (CHO cells, Geneticin selection)
T1 sequence (P11229 1-460): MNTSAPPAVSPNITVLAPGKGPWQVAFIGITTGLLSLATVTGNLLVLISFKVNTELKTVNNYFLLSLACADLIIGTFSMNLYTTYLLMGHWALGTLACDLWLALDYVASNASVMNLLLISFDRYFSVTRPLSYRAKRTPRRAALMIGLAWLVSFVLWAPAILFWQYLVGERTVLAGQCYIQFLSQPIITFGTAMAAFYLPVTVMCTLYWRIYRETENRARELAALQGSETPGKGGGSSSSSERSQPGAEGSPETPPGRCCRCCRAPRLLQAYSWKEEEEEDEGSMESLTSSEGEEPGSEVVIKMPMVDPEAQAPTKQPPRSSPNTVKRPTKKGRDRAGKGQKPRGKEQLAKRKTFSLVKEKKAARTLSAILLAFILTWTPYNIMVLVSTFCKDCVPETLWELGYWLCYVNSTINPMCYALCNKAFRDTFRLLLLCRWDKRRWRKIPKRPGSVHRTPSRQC
Format: cell-based
Description: The assay studies the effect of one or several concentrations of test compounds on basal or acetylcholine-stimulated Ca^2+ levels using FLIPR.
Compounds are prepared and subjected to a preincubation period of 4 min. Thereafter, a single EC20 concentration of acetylcholine is added to each well (3 nM final). The intracellular Ca^2+ level of each sample is measured and compared to an acetylcholine control to determine any modulatory activity.
Cells: CHOnfat/hM1, hM2, hM3 or hM4 cells are plated 24 hr before the assay at a density of 18,000 cells/well (100 μL) in a 384 well plate. CHOnfat/hM1 and CHOnfat/hM3 Growth Medium: 90% DMEM (Hi Glucose); 10% HI FBS; 2 mM L-glutamine; 0.1 mM NEAA; Pen-Strep; and 1 mg/ml Geneticin, are added. For M2Gqi5CHOnfat and M4Gqi5CHOnfat cells, an additional 600 ug/ml hygromycin is added.
Equipment: 384 well plate, 120 μL addition plate; 96-well Whatman 2 ml Uniplate Incubator, 37° C., 5% CO2; Skatron EMBLA-384 Plate Washer; Multimek Pipetting System; Genesis Freedom 200 System; Mosquito System; Temo Nanolitre Pipetting System; and FLIPR^384 Fluorometric Imaging Plate Reader System are used.
Buffers. Assay Buffer: […] Balanced Salt Solution, with 20 mM Hepes, 2.5 mM Probenecid (Sigma P-8761) first dissolved in 1 N NaOH, 1% Bovine Serum Albumin (Sigma A-9647). Dye Loading Buffer: Assay Buffer plus 1% Fetal Bovine Serum and Fluo-4AM/Pluronic Acid Mixture. 2 mM Fluo-4AM ester stock in DMSO (Molecular Probes F-14202) Concentration of 2 μM in buffer for a final concentration of 1 μM in Assay. 20% Pluronic Acid Solution stock, with concentration of 0.04% in Buffer, 0.02% in Assay.
65 μL of 2 mM Fluo-4AM are mixed with 130 μL of 20% Pluronic Acid. The resulting solution and 650 μL FBS is added to the assay buffer for a total volume of 65 mL. Positive Controls: 4-Br-A23187: 10 mM in DMSO; final concentration 10 μM. Acetylcholine: 10 mM in water, working stock at both 20 μM and 30 μM in assay buffer, final concentration of 10 μM. This is used to check the maximum stimulation of the CHOK1/hM1 cells. 20 μM (2×) acetylcholine is added in the preincubation part of the assay, and the 30 μM (3×) stock is added in the second part. (EC20) Acetylcholine: 10 mM in water, working stock of 9 nM (3×), and final concentration in assay is 3 nM. This is used after the preincubation with test compounds. Addition of the EC20 Acetylcholine to each well with a test compound will ascertain any modulator activity. 24 wells contain 3 nM Acetylcholine alone as a control.
Screening Plate Compounds are titrated in 96-well plates (columns 2-11), 100% DMSO, started at a concentration of 15 mM (150× stock concentration), and 3-fold serial dilutions using Genesis Freedom200 System. Four 96-well plates are combined into a 384-well plate using Mosquito Nanolitre Pipetting System by transferring 1 μl of serial diluted compounds to each well, and 1 mM acetylcholine (100× stock concentration) were added as a control. Using Temo, 49 μl assay buffer is added to each well of the 384-well plate right before assay.
In a 96-well Whatman 2 ml Uniplate, 9 nM Acetylcholine (3×) is pipetted into wells corresponding to the screening compounds, and into control wells. The 30 μM acetylcholine control (3×) is added into control wells, and the 3× agonist plate is transferred into a 384 well plate.
Cells are washed three times with 100 μL of buffer, leaving 30 μL of buffer in each well. Using Multimek, 30 μL of Dye Loading Buffer is added into each well and incubated at 37° C., 5% CO2 for up to one hr.
After 60 min, the cells are washed three times with 100 μL of buffer, leaving 30 μL of buffer in each well. The cell plate, screening plate, and agonist addition plates are placed on the platform in the FLIPR and the door closed. A signal test to check background fluorescence and basal fluorescence signal is performed. Laser intensity is adjusted if necessary. […]

EC50 [nM] | SMILES
28.6 | O=c1c2cc(Cc3cccnc3)c3cccnc3c2ccn1[C@H]1CCCC[C@@H]1O [Example 6, 8-[(1S,2S)-2-hydroxycyclohexyl]-5-(pyridin-3-ylmethyl)-1,8-phenanthrolin-7(8H)-one]
72 | O=c1c2cc(Cc3ccnc(OC(F)F)c3)c3cccnc3c2ccn1[C@H]1CCCC[C@@H]1O [Example 4]
1.7 | Cn1cc(-c2ccc(Cc3cc4c(=O)n([C@H]5CCCC[C@@H]5O)ccc4c4ncccc34)cn2)cn1 [Example 5]
23.5 | O=c1c2cc(Cc3ccc(Cl)nc3)c3cccnc3c2ccn1[C@H]1CCCC[C@@H]1O [Example 1, 5-[(6-Chloropyridin-3-yl)methyl]-8-[(1S,2S)-2-hydroxycyclohexyl]-1,8-phenanthrolin-7(8H)-one]
15 | CSc1ccc(Cc2cc3c(=O)n([C@H]4CCCC[C@@H]4O)ccc3c3ncccc23)cn1 [Example 3]
20.6 | COc1ccc(Cc2cc3c(=O)n([C@H]4CCOC[C@@H]4O)ccc3c3ncccc23)cn1 [Example 2, 1,5-Anhydro-2,3-dideoxy-3-{5-[(6-methoxypyridin-3-yl)methyl]-7-oxo-1,8-phenanthrolin-8(7H)-yl}-L-threo-pentitol]

Same assay, conditions: Table 1, unit inferred, potentiation of acetylcholine EC20 (3 nM final), read-out: H Pot.

EC50 [nM] | SMILES
6.2 | COc1ccc(Cc2cc3c(=O)n([C@H]4CCOC[C@@H]4O)ccc3c3ncccc23)cc1 [Example 8]
20.5 | O=c1c2cc(Cc3ccnc(Cl)c3)c3cccnc3c2ccn1[C@H]1CCCC[C@@H]1O [Example 11]
24 | Cc1cc(Cc2cc3c(=O)n([C@H]4CCCC[C@@H]4O)ccc3c3ncccc23)ccn1 [Example 12]
22.5 | COc1ccc(Cc2cc3c(=O)n([C@H]4CCCC[C@@H]4O)ccc3c3ncccc23)cn1 [Example 9]
21 | COc1ccc(Cc2cc3c(=O)n([C@H]4CCCC[C@@H]4O)ccc3c3ncccc23)cc1 [Example 7]
21.9 | COc1cc(Cc2cc3c(=O)n([C@H]4CCCC[C@@H]4O)ccc3c3ncccc23)ccn1 [Example 10]
55 | O=c1c2cc(Cc3ccc(OC(F)F)nc3)c3cccnc3c2ccn1[C@H]1CCCC[C@@H]1O [Example 13]
16.8 | Cc1cc(Cc2cc3c(=O)n([C@H]4CCOC[C@@H]4O)ccc3c3ncccc23)ccn1 [Example 14]
